Where two headings read alike, the source gives them in different places.

This test deals with Ba/F3 ETV6-NTRK3-G696C cells. The test can be described thus: Proliferation of Ba/F3 ETV6-NTRK3-G696C cells (CellTiter-Glo). The test is classed as cell-based, mouse. An excerpt: Ba/F3 ETV6-NTRK3-G696C is a stable transgenic cell line constructed by KYinno Biotechnology Co., Ltd. on mouse primary B cell Ba/F3 wherein NTRK3 is highly expressed with a mutation of G at position […] to C and fused with ETV6 to form ETV6-NTRK3. • [Test method]: Promega's CellTiter-Glo® Luminescent Cell Viability Assay kit was used to evaluate the inhibitory activity of the compounds on the proliferation of Ba/F3 ETV6-NTRK3-G696C cells. • [Instrument]: Spectramax M3 multifunctional microplate reader from Molecular Devices. • [Test materials]: Ba/F3 ETV6-NTRK3-G696C cell line (constructed by KYinno Biotechnology Co., Ltd. (Beijing)), 96-well transparent flat-bottomed black-walled cell culture plate (Corning, cat #3603), RPMI-1640 media (GE, product number #SH30027.01), fetal bovine serum FBS (Thermo Fisher, cat #10099-141), CellTiter-Glo® Luminescent Cell Viability Assay kit (Promega, cat #G7572), PBS (Solarbio, cat #P1020), DMSO (Sigma, cat #D2650). • [Experimental procedure]: When resuscitating Ba/F3 ETV6-NTRK3-G696C cells, • the freezing tube was quickly shaken in a 37° C. water bath to melt within 1 minute. The thawed cell suspension was mixed uniformly with RPMI1640 medium containing 10% FBS, centrifuged at 1000 rpm for 5 minutes, and the supernatant discarded. 5 mL of complete medium (RPMI1640 medium with 10% FBS) was taken to resuspend the cell pellets, charged into a cell culture flask with a bottom area of 25 cm^2, and incubated in a cell incubator at 37° C., 95% humidity and 5% CO2. Cells were allowed to passage when the number of cells reached about 10^6 cells/mL. For cell passage, the old cell suspension was directly pipetted evenly, 1/5 of the cell suspension was kept, 4 mL of new complete medium was added, after pipetting evenly, the cell flask was placed in the cell incubator for further culturing. Cell plating was performed when the number of cells reached about 10^6 cells/mL again. For cell plating, 1/5 of the cell suspension was kept for further culturing as in the cell passage method, and the remaining 4/5 of the cell suspension was placed in a 15 mL centrifuge tube, detected for cell viability by Trypan blue exclusion method to ensure that cell viability was above 90%. A cell suspension with a density of 5.56×10^4 viable cells/mL was prepared with complete medium, and 90 μL of such cell suspension was added to a 96-well cell culture plate to obtain the cell density of 5000 viable cells/mL in the cell culture plate. A control group containing no cells, no compound and only complete medium (i.e. culture medium control) and a control group containing no compound but containing cells (i.e. cell control) were set. The cell plate was placed in a cell incubator overnight. The 10 mM compound stock solution in DMSO was first serially diluted with DMSO at a dilution factor of 3.16 times, to obtain 9 concentrations, and the 10th concentration was set as DMSO control without compound. Then, PBS was used to dilute the DMSO solutions of compounds of different concentrations, at a dilution factor of 100 times, so that the DMSO concentration in the compound solution of each concentration was 1%. Finally, 10 μL of each of the above solutions was added to the corresponding cell culture plate, so that the initial compound concentration was 10 μM, with the remaining concentrations being successively diluted at a dilution factor of 3.16 times, and the DMSO content in the cell culture plate was 0.1%. The cell plate was placed in a cell incubator and cultured for 72 hours. For endpoint detection, the CellTiter-Glo reagent was melted, and the cell plate was moved to room temperature to equilibrate for 30 minutes, added with 100 μL of CellTiter-Glo for each well, and shaken on an orbital shaker for 5 minutes to fully lyse the cells. […]

Where [1] appears, read: Mus musculus, BaF3, Table 7-2, separate test, read-out: Ba/F3 ETV6-NTRK3-G696C, IC50.
Where [2] appears, read: Mus musculus, BaF3, Table 7-1, separate test, read-out: Ba/F3 ETV6-NTRK3-G696C, IC50.
[3] abbreviates: Mus musculus, BaF3, Table 9, read-out: Ba/F3 ETV6-NTRK3-G696C cell proliferation inhibitory activity (IC50).
Where [4] appears, read: Mus musculus, BaF3, 72 h, Table 7, 72 hours, read-out: Ba/F3 ETV6-NTRK3-G696C, IC50.

With `CC(C)Oc1ccc(C(=O)Nc2ccc(Oc3cc4cnn(C)c4cc3-c3cn[nH]c3)c(F)c2)c(=O)n1-c1ccc(F)cc1` [Example 16, N-(3-fluoro-4-(1-methyl-6-(1H-pyrazol-4-yl)-1H-indazol-5-yloxy)phenyl)-1-(4-fluorophenyl)-6-isopropoxy-2-oxo-1,2-dihydropyridine-3-carboxamide], under setting [1], the IC50 stood at 1.2 nM.

As for `CCc1ccc(C(=O)Nc2ccc(Oc3cc4cnn(CC)c4cc3-c3cn[nH]c3)c(F)c2)c(=O)n1-c1ccc(F)cc1` [Example 18, N-(3-fluoro-4-(1-ethyl-6-(1H-pyrazol-4-yl)-1H-indazol-5-yloxy)phenyl)-1-(4-fluorophenyl)-6-ethyl-2-oxo-1,2-dihydropyridine-3-carboxamide], the IC50 under setting [2] came out at 12 nM. Turning to `CCn1ncc2cc(Oc3ccc(NC(=O)c4ccc(C5CC5)n(-c5ccc(F)cc5)c4=O)cc3F)c(-c3cn[nH]c3)cc21` [Example 19, N-(3-fluoro-4-(1-ethyl-6-(1H-pyrazol-4-yl)-1H-indazol-5-yloxy)phenyl)-1-(4-fluorophenyl)-6-cyclopropyl-2-oxo-1,2-dihydropyridine-3-carboxamide], the IC50 under setting [2] stood at 14 nM. As for `CCn1ncc2cc(Oc3ccc(NC(=O)c4ccc(OC)n(-c5ccc(F)cc5)c4=O)cc3F)c(-c3cn[nH]c3)cc21` [Example 23, N-(3-fluoro-4-(1-ethyl-6-(1H-pyrazol-4-yl)-1H-indazol-5-yloxy)phenyl)-1-(4-fluorophenyl)-6-methoxy-2-oxo-1,2-dihydropyridine-3-carboxamide], the IC50 under setting [2] was found to be 11 nM. Turning to `CCOc1ccc(C(=O)Nc2ccc(Oc3cc4cnn(CC)c4cc3-c3cn[nH]c3)c(F)c2)c(=O)n1-c1ccc(F)cc1` [Example 24, N-(3-fluoro-4-(1-ethyl-6-(1H-pyrazol-4-yl)-1H-indazol-5-yloxy)phenyl)-1-(4-fluorophenyl)-6-ethoxy-2-oxo-12-dihydropyridine-3-carboxamide], the IC50 (Table 7-2, separate test, read-out: Ba/F3 ETV6-NTRK3-G696C, IC50) was found to be 3.5 nM. Consider `CCn1ncc2cc(Oc3ccc(NC(=O)c4ccc(OC(C)C)n(-c5ccc(F)cc5)c4=O)cc3F)c(-c3cn[nH]c3)cc21` [Example 26, N-(3-fluoro-4-(1-ethyl-6-(1H-pyrazol-4-yl)-1H-indazol-5-yloxy)phenyl)-1-(4-fluorophenyl)-6-isopropoxy-2-oxo-1,2-dihydropyridine-3-carboxamide], for which the IC50 under setting [1] came out at 3.1 nM.

Regarding `COc1ccc(C(=O)Nc2ccc(Oc3cc4cnn5c4c(c3-c3cn[nH]c3)CC5)c(F)c2)c(=O)n1-c1ccc(F)cc1` [Example 28, N-(4-((5-(1H-pyrazol-4-yl)-6,7-dihydropyrrolo[3,2,1-hi]-indazol-4-yl)oxy)-3-fluorophenyl)-1-(4-fluorophenyl)-6-methoxy-2-oxo-1,2-dihydropyidine-3-carboxamide], the IC50 under setting [3] was determined as 3.6 nM. On the same count and under the same terms, with `Cc1ccc(C(=O)Nc2ccc(Oc3cc4cnn5c4c(c3-c3cn[nH]c3)CC5)c(F)c2)c(=O)n1-c1ccc(F)cc1` [Example 31, N-(4-((5-(1H-pyrazol-4-yl)-6,7-dihydropyrrolo[3,2,1-hi]-indazol-4-yl)oxy)-3-fluorophenyl)-1-(4-fluorophenyl)-6-methyl-2-oxo-1,2-dihydropyridine-3-carboxamide] the figure was 5.3 nM; with `CCOc1ccc(C(=O)Nc2ccc(Oc3cc4cnn5c4c(c3-c3cn[nH]c3)CC5)c(F)c2)c(=O)n1-c1ccc(F)cc1` [Example 32, N-(4-((5-(1H-pyrazol-4-yl)-6,7-dihydropyrrolo[3,2,1-hi]-indazol-4-yl)oxy)-3-fluorophenyl)-6-ethoxy-1-(4-fluorophenyl)-2-oxo-12-dihydropyridine-3-carboxamide], 4.7 nM; with `CC(C)Oc1ccc(C(=O)Nc2ccc(Oc3cc4cnn5c4c(c3-c3cn[nH]c3)CC5)c(F)c2)c(=O)n1-c1ccc(F)cc1` [Example 34, N-(4-((5-(1H-pyrazol-4-yl)-6,7-dihydropyrrolo[3,2,1-hi]-indazol-4-yl)oxy)-3-fluorophenyl)-1-(4-fluorophenyl)-6-isopropoxy-2-oxo-12-dihydropyrndine-3-carboxamide], 4.8 nM. As to `O=C(Nc1cnn2ccc(N3CCC[C@@H]3c3cc(F)ccc3F)nc12)N1CC[C@H](O)C1` [LOXO-101, Larotrectinib, reference compound], the IC50 under setting [4] amounted to 1890 nM. `Cc1ccc(C(=O)Nc2ccc(Oc3cc4cnn(C)c4cc3-c3cn[nH]c3)c(F)c2)c(=O)n1-c1ccc(F)cc1` [Merestinib, reference compound]: the IC50 runs as follows: under setting [4], 10 nM; under setting [2], 13 nM; under setting [1], 1.7 nM.
